Structures are written as SMILES. Counter-ions that a name gives are not always drawn.

This series is described as follows: collision cross section in nitrogen (drift tube, single-field); higher = larger gas-phase ion size.
Where [1] appears, read: ion type: [M-H], ion source: ESI, ion mode: Negative.
Where [2] appears, read: ion type: [M+H], ion source: APCI, ion mode: Positive.
[3] abbreviates: ion type: [M+H], ion source: ESI, ion mode: Positive.
[4] abbreviates: ion type: [M+Na], ion source: ESI, ion mode: Positive.
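Further: chemical standards at 10 µM analysed by drift tube IMS-QTOF MS in about 3.95 torr nitrogen, mean of duplicate injections differing ≤1%, mass error below 10 ppm.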

As for `O=C1CN(N=Cc2ccc(-c3ccc([N+](=O)[O-])cc3)o2)C(=O)N1` [Dantrolene sodium], the “collision cross section in nitrogen” value under setting [1] came out at 180 Å². For the compound `CCOC(=O)C(C)Oc1ccc(Oc2nc3ccc(Cl)cc3o2)cc1` (stereo not given) [Fenoxaprop-ethyl], the “collision cross section in nitrogen” value under setting [2] worked out at 190.2 Å², the “collision cross section in nitrogen” value under setting [3] was found to be 189.3 Å² and the “collision cross section in nitrogen” value under setting [4] came to 189.1 Å². On to `CN1C(=O)CC[C@H]1c1cccnc1` [Cotinine], for which the “collision cross section in nitrogen” value under setting [3] is 144.8 Å². As to `CCCCc1ccc(O)cc1` [4-Butylphenol], the “collision cross section in nitrogen” value under setting [1] is on record as 140.6 Å².

`CNC(=C[N+](=O)[O-])NCCSCc1csc(CN(C)C)n1` [Nizatidine]: the “collision cross section in nitrogen” value by setting is: under setting [2], 171.3 Å²; under setting [3], 171 Å²; under setting [4], 178.1 Å²; under setting [1], 181.9 Å². As to `C=CC(=O)NC(C)(C)CS(=O)(=O)O` [2-Acrylamido-2-methyl-1-propanesulfonic acid], under setting [1], the “collision cross section in nitrogen” value was determined as 141.5 Å².

With `Nc1ccc(S(=O)(=O)O)c(N)c1` [2,4-Diaminobenzenesulfonic acid], the “collision cross section in nitrogen” value under setting [1] worked out at 137.9 Å².

Regarding `CC[C@]12CCCN3CCc4c(n(c5ccccc45)[C@@](O)(C(=O)OC)C1)[C@@H]32` [Vincamine], the “collision cross section in nitrogen” value is, setting by setting: under setting [2], 182.5 Å²; under setting [3], 183.2 Å². With `CC(=O)NC1(c2cccc(F)c2)CCN(CC[C@@]2(c3ccc(Cl)c(Cl)c3)CN(c3ccccc3)C(=O)CO2)CC1`, the “collision cross section in nitrogen” value by setting is: under setting [3], 243.8 Å²; under setting [4], 250.7 Å².

Turning to `O=C1OCCN1N=Cc1ccc([N+](=O)[O-])o1` [Furazolidone], under setting [1], the “collision cross section in nitrogen” value is 150.8 Å². Still for that read-out and setting: the figure for `Oc1ccccc1Cc1ccccc1O` [2,2′-Methylenebis[phenol]] is 142.9 Å²; for `O=S(=O)(O)c1ccc2cc(O)ccc2c1` [Sodium 6-hydroxynaphthalene-2-sulfonate] it is 148.7 Å².

Turning to `Cn1sccc1=O` [2-Methyl-3-isothiazolone hydrochloride], under setting [3], the “collision cross section in nitrogen” value was 118.5 Å².

Turning to `Oc1cccc(O)c1` [Resorcinol], under setting [1], the “collision cross section in nitrogen” value amounted to 118.9 Å². As for `c1ccc2c(c1)CCN2` [Indoline], the “collision cross section in nitrogen” value under setting [2] is given as 120.8 Å². Regarding `COCCOCCOCCO` [2-[2-(2-Methoxyethoxy)ethoxy]ethanol], the “collision cross section in nitrogen” value under setting [4] came to 135.6 Å². The same measure, in the same setting: with `CC(C)C(OC(=O)c1ccccc1)C(C)(C)COC(=O)c1ccccc1` (stereo not given) [2,2,4-Trimethylpentane-1,3-diyl dibenzoate] the figure was 194.6 Å². Turning to `CCCCCCCCCCCC(=O)OC` [Methyl dodecanoate], the “collision cross section in nitrogen” value under setting [1] was 158.5 Å². For `N=C(N)c1ccccc1` [Benzenecarboximidamide, monohydrochloride], the “collision cross section in nitrogen” value is recorded as 124.7 Å² under setting [2] and 125 Å² under setting [3]. `CC(C)(c1ccccc1)c1ccc(O)c(C(C)(C)c2ccccc2)c1` [2,4-Bis(1-methyl-1-phenylethyl)phenol]: the “collision cross section in nitrogen” value stood at 171.9 Å² under setting [3] and 187.8 Å² under setting [1]. Take `c1ccc2c(c1)sc1ccccc12` [Dibenzothiophene]: for the setting “ion type: [M+], ion source: APCI, ion mode: Positive”, the “collision cross section in nitrogen” value stood at 130.2 Å².

With `CC(C1CC1)C(O)(Cn1cncn1)c1ccc(Cl)cc1` (stereo not given) [Cyproconazole], the “collision cross section in nitrogen” value is reported as 170.6 Å² under setting [2] and 170.2 Å² under setting [3]. On to `O=c1[nH]c2ccccc2n1C1CCN(CCCC(c2ccc(F)cc2)c2ccc(F)cc2)CC1` [Pimozide], for which the “collision cross section in nitrogen” value came to 211.9 Å² under setting [2], 211.8 Å² under setting [3], 217.6 Å² under setting [4] and 215.8 Å² under setting [1]. As to `NNc1nc(-c2ccc([N+](=O)[O-])cc2)cs1` [2-Hydrazino-4-(4-nitrophenyl)thiazole], the “collision cross section in nitrogen” value under setting [1] is 149 Å². The same measure, in the same setting: with `CC(C)C(=O)Nc1ccc([N+](=O)[O-])c(C(F)(F)F)c1` [Flutamide] the figure was 154.9 Å². As for `CCCSP(=O)(OCC)SCCC` [Ethoprop], the “collision cross section in nitrogen” value runs as follows: under setting [2], 151.3 Å²; under setting [3], 151.5 Å²; under setting [4], 169.5 Å².

Turning to `Oc1nc2ccccc2s1` [Benzothiazolone], the “collision cross section in nitrogen” value under setting [1] was 123.7 Å². Regarding `CCOP(=S)(Oc1cnc(C(C)(C)C)nc1)OC(C)C` (stereo not given) [Tebupirimfos], the “collision cross section in nitrogen” value is listed as 177.4 Å² under setting [2] and 177.4 Å² under setting [3].

For `O=c1[nH]c(=O)c2[nH]c(=O)[nH]c2[nH]1` [Uric acid], the “collision cross section in nitrogen” value under setting [1] was determined as 126.4 Å². On the same count and under the same terms, with `Cc1cn([C@H]2C[C@H](N=[N+]=[N-])[C@@H](CO)O2)c(=O)[nH]c1=O` [3'-Azido-3'-deoxythymidine] the figure was 159.9 Å². On the same count and under the same terms, the figure for `Nc1cc([N+](=O)[O-])ccc1Cl` [2-Chloro-5-nitroaniline] is 125.5 Å².

For the compound `CCCCN(CCCC)SN(C)C(=O)Oc1cccc2c1OC(C)(C)C2` [Carbosulfan], the “collision cross section in nitrogen” value by setting is: under setting [2], 188.3 Å²; under setting [3], 188.3 Å²; under setting [4], 204.7 Å². Turning to `Cc1ccc(C)c(O)c1C` [2,3,6-Trimethylphenol], the “collision cross section in nitrogen” value under setting [1] stood at 130.9 Å².

As to `OC[C@@H](O)[C@@H](O)[C@H](O)[C@H](O)CO` [D-Mannitol], the “collision cross section in nitrogen” value under setting [4] came out at 141.5 Å² and the “collision cross section in nitrogen” value under setting [1] turned out to be 132.5 Å². For the compound `Cc1ccc2c(c1)CCCN2` [6-Methyl-1,2,3,4-tetrahydroquinoline], the “collision cross section in nitrogen” value by setting is: under setting [2], 134.5 Å²; under setting [3], 134.8 Å². Take `CCCCCCCCOC(=O)CCCCCCCCC(=O)OCCCCCCCC` [Dioctyl sebacate]: the “collision cross section in nitrogen” value under setting [3] was determined as 224.6 Å² and the “collision cross section in nitrogen” value under setting [4] is 225.4 Å². In the case of `CCCCCOC(=O)CCCCC` [n-Amyl caproate], under setting [1], the “collision cross section in nitrogen” value is on record as 151.6 Å². As for `O=C(NO)c1ccccc1O` [Salicylhydroxamic acid], under setting [1], the “collision cross section in nitrogen” value was determined as 124.5 Å². Take `C=CC(=O)OCC(CO)(COC(=O)C=C)COC(=O)C=C` [Pentaerythritol triacrylate]: the “collision cross section in nitrogen” value under setting [4] came out at 165.1 Å². For `CN(C)C(=O)C(c1ccccc1)c1ccccc1` [Diphenamid], the “collision cross section in nitrogen” value runs as follows: under setting [2], 154.1 Å²; under setting [3], 154.7 Å²; under setting [4], 164.6 Å². Regarding `O=C(NCO)NCO` [1,3-Dimethylolurea], the “collision cross section in nitrogen” value under setting [4] came to 151.7 Å². With `CSc1nnc(C(C)(C)C)c(=O)n1N` [Metribuzin], the “collision cross section in nitrogen” value under setting [2] is listed as 146.7 Å², the “collision cross section in nitrogen” value under setting [3] worked out at 148.4 Å² and the “collision cross section in nitrogen” value under setting [1] was found to be 148.3 Å².

Regarding `CC(=O)Nc1c(I)c(NC(C)=O)c(I)c(C(=O)O)c1I` [Diatrizoic acid], the “collision cross section in nitrogen” value was 179.4 Å² under setting [3] and 183.6 Å² under setting [4]. Take `COc1cc(C=O)ccc1O` [4-Hydroxy-3-methoxybenzaldehyde]: the “collision cross section in nitrogen” value under setting [1] stood at 128.1 Å². As for `CCCCCCCCCCCCN1CCCC1=O` [1-Dodecyl-2-pyrrolidinone], the “collision cross section in nitrogen” value was 176.3 Å² under setting [3] and 176.6 Å² under setting [4].

Consider `CCCOC(=O)c1ccc(O)cc1` [Propylparaben], for which the “collision cross section in nitrogen” value under setting [1] is 142.9 Å². As to `CCN(CC)c1ccc(C(=O)c2ccccc2C(=O)O)c(O)c1` [2-[4-(Diethylamino)-2-hydroxybenzoyl]benzoic acid], the “collision cross section in nitrogen” value is on record as 177.2 Å² under setting [2], 177.1 Å² under setting [3], 187.1 Å² under setting [4] and 179.8 Å² under setting [1].

Regarding `N#Cc1ccc(CC(=O)c2cccc(C(F)(F)F)c2)cc1` [4-{2-Oxo-2-[3-(trifluoromethyl)phenyl]ethyl}benzonitrile], the “collision cross section in nitrogen” value under setting [1] was found to be 163 Å². Consider `O=C1C[C@@H]2OCC=C3CN4CC[C@]56c7ccccc7N1[C@H]5[C@H]2[C@H]3C[C@H]46` [Strychnine], for which the “collision cross section in nitrogen” value is, setting by setting: under setting [2], 172 Å²; under setting [3], 175.2 Å². `O=C(N[C@H]1CN2CCC1CC2)c1cc2ccoc2cn1` [(R)-N-(Quinuclidin-3-yl)furo(2,3-C)pyridine-5-carboxamide]: the “collision cross section in nitrogen” value reads like this: under setting [2], 168.1 Å²; under setting [3], 168 Å²; under setting [4], 181 Å²; under setting [1], 172.1 Å². Take `CCCOc1sc(C(=O)N2CCC(c3cc(CN)ccc3F)CC2)c(C)c1Br` [AVE8923]: the “collision cross section in nitrogen” value was 197.2 Å² under setting [2] and 204.9 Å² under setting [4].

In the case of `CC(C)(O)C(=O)Nc1ccc([N+](=O)[O-])c(C(F)(F)F)c1` [Hydroxyflutamide], the “collision cross section in nitrogen” value under setting [1] is on record as 157.4 Å². Still for that read-out and setting: with `O=S(=O)(O)c1cccc2c(S(=O)(=O)O)cccc12` [1,5-Naphthalenedisulfonic acid, disodium salt hydrate] the figure was 156.3 Å²; with `O=C(Nc1ccc([N+](=O)[O-])cc1Cl)c1cc(Cl)ccc1O` [5-Chloro-N-(2-chloro-4-nitrophenyl)-2-hydroxybenzamide], 164.6 Å². Take `C=C(C)C(=O)OCCOC(=O)CC(C)=O` [2-(Methacryloyloxy)ethyl acetoacetate]: under setting [4], the “collision cross section in nitrogen” value is listed as 147.6 Å². As to `CCN(Cc1cccc(S(=O)(=O)O)c1)c1ccc(C(=C2C=CC(=[N+](CC)Cc3cccc(S(=O)(=O)O)c3)C=C2)c2ccc(O)cc2S(=O)(=O)[O-])cc1` [FD&C Green No. 3], the “collision cross section in nitrogen” value is given as 259 Å² under setting [3], 260.8 Å² under setting [4] and 260.3 Å² under setting [1]. As to `CCC(C)c1cc(C(C)(C)C)cc(-n2nc3ccccc3n2)c1O` (stereo not given) [2-(2H-Benzotriazol-2-yl)-6-(butan-2-yl)-4-tert-butylphenol], the “collision cross section in nitrogen” value reads like this: under setting [2], 187.2 Å²; under setting [1], 192.5 Å².
